Data set [1] deals with polyvalent resistant (CH strain) houseflies. Nature of the data set: whole plant or invertebrate. The class given is in vivo, housefly (CH strain). To be noted: for percent kill after 24 hours: CH strain. How it is done:
The effect of O-(2-propynyl) oximes with Dimetilan and with GS 13798 was obtained from tests on polyvalent resistant (CH strain) houseflies that had been chilled and to the dorsal region of which was applied an acetone solution of synergist and insecticide at a ratio of two to one. Duplicate tests were performed using 10 four to five-day old female houseflies per test. After dosage, the flies were put in a plastic petri dish with cotton soaked in a sugar-water solution. These doses of insecticide used without synergist caused 10-40% mortality.
(§1) In Table IX, and in the tables following it, the doses of topically applied insecticides and of synergists unless otherwise noted are expressed as micrograms per fly (μg/fly).
The effect of compounds II-C, II-D and II-E with Dimetilan and GS 13798 was determined, following the procedure of Example 5, from tests on polyvalent resistant (CH strain) houseflies. These doses of insecticide used without synergist caused 10-40% mortality.
(§2) The synergistic effect with GS 13005 of compounds I-A, I-B, I-D, I-E, I-F, I-G and I-I was determined from topical application tests to IN/WHO strain, Rutgers A strain and polyvalent CH strain houseflies using the procedures of Example 5. The percent kills of the IN/WHO strain flies after 24 hours are shown in Table XXVIII; of the Rutgers A strain, in Table XXIX; and of the polyvalent CH strain, in Table XXX. The doses of insecticide alone to the CH strain files caused 10-40% mortality.
(§3) The synergistic effect with Diazinon and GS 13005 of various of the benzyl 2-propynyl ethers identified in Tables II and IIa was determined by topical application tests on IN/WHO strain, and Rutgers A strain and polyvalent, resistant, CH strain houseflies using the procedures of Example 5. The percent kills after 24 hours of IN/WHO strain flies are shown in Table XXXI; of Rutgers A strain flies, in Table XXXII; and of CH strain flies, in Table XXXIII. The doses of insecticide alone to the CH strain flies caused 10-40% mortality.
The synergistic effect with pyrethrum of various synergist compounds was determined by topical application tests on polyvalent, resistant CH strain houseflies following the procedure of Example 5. Application of the insecticide alone caused 10-40% mortality.

A further data set has as its system CH strain flies. The data set is described as follows: spray application of pyrethrum, average percent knockdown with time. The class given is in vivo, housefly (CH strain). The settings on record: pyrethrum 100 + synergist 100 mg/cc. How it is done: The average percent knockdown of CH strain flies, as a function of time, resulting from spray application of pyrethrum, alone and with synergists, are given in Table XXXXIII. Duplicate tests were performed using 50 CH strain houseflies per test. Test solutions of 100 mg and 200mg of pyrethrum per cc of acetone, 200 mg of synergist per cc of acetone, and a mixture of 100 mg of pyrethrum and 100 mg of synergist per cc of acetone were prepared. The fifty CH strain houseflies were put in a 40 liter spray chamber and 1 cc of the test solution was sprayed into the test chamber with a spray pistol. The synergists alone at 200 mg/cc caused no knockdown.

The subject of data set [2] is mice. The data set is described as follows: extension of Secobarbital sleeping time by synergists. The class given is in vivo, Swiss albino white male mice. To be noted: Secobarbital 37 mg/K; for Relative Sleeping Time: treated/control. The method in brief:
(§4)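 Swiss albino male mice (~38 days, 25-30 g) given synergist at 74.0 or 110.0 mg/kg in corn oil 1 h before Secobarbital 37.0 mg/kg or Noludar 110.0 mg/kg in water. Sleeping time measured from drug dosing to righting-reflex recovery; relative sleeping time = treated ÷ drug-only control.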

In data set [3] the test system is mice. Nature of the data set: extension of Noludar sleeping time by synergists. The class given is in vivo, Swiss albino white male mice. To be noted: Noludar 110 mg/K, synergist 110 mg/K. The method in brief:
as §4

In data set [4] the test system is mice. Nature of the data set: synergism of acute toxicity of Dimetilan, GS 13005, Secobarbital and Methadone (intraperitoneal). The class given is in vivo, Swiss albino white male mice. The settings on record: for number of mice dead: 48 hours, of eight mice. An outline of the steps: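 Male Swiss albino mice (5–6 weeks, 23–27 g), eight per dose; synergist in corn oil given i.p. 1 h before i.p. insecticide or drug (drugs in distilled water). Lethality recorded over at least 6 h; controls received corn oil plus agent alone.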

For another data set, the system named is houseflies. Nature of the data set: percent kill with Diazinon, Table XXVII (strain not given). The class given is in vivo, housefly. To be noted: Diazinon 5 + synergist 10 μg/fly, 1440 min.
Data set [5] deals with Wilson strain house flies. The class given is in vivo, house fly (susceptible Wilson strain). An outline of the steps: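 Flies held at room temperature in glass jars coated with acetone-deposited insecticide film, alone or with synergist at 5:1 synergist:insecticide by weight; 10% sugar supplied.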
The subject of data set [6] is IN/WHO strain house flies. Nature of the data set: topical application test, percent kill after 24 hours, IN/WHO strain. The class given is in vivo, house fly (susceptible IN/WHO strain). An outline of the steps:
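Susceptible female IN/WHO house flies, 3–5 days old, CO2-anesthetized, received synergist plus insecticide in acetone (1.0 μL) on the thorax; doses in μg/fly. Flies held 10 per dish, 3–5 dishes/treatment, with skim milk; mortality (percent kill) read at 24 h.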

Data set [7] relates to Rutgers A strain house flies. Nature of the data set: topical application test, percent kill after 24 hours, Rutgers A strain. The settings on record: GS 13005 alone 1.0 μg/fly, 1440 min. The class given is in vivo, house fly (resistant Rutgers A strain). How it is done:
as §1
The synergistic effect of O-(2-propynyl) oximes with mobam was determined from topical application tests on susceptible, female, IN/WHO strain house flies and from tests on resistant, female, Rutgers A strain house flies. The synergist and insecticide were dissolved in ACS Grade acetone in such quantities that a 1.0μ liter volume applied to the thorax of 3-to-5 day old CO2 -anesthetized female adult house flies contained the desired dosage. After being treated, the flies were confined, 10 to a plaster petri dish, with 3-5 dishes/treatment, and held for 24-hr. observation of mortality. Reconstituted skim milk on cotton dental wicks was provided during the holding period. The percent kills after 24 hours are shown in Table X for the IN/WHO strain and Table XI for the Rutgers A strain.
The synergistic effect of benzyl 2-propynyl ethers with mobam was determined from topical application tests on IN/WHO and Rutgers A strain houseflies, following the procedure of Example 5. The percent kills after 24 hours are shown in Table XIV for the IN/WHO strain and in Table XV for the Rutgers A strain.
The synergistic effect with Diazinon of compounds I-B, I-D, I-F, I-G, I-H and I-I, identified in Tables I and Ia, was determined from topical application tests on IN/WHO strain houseflies and on Rutgers A strain houseflies by the procedure of Example 5. The percent kills after 24 hours are shown in Table XXV for the IN/WHO strain and Table XXVI for the Rutgers A strain.
as §2, §3
The synergistic effect on IN/WHO strain flies and Rutgers A strain flies of compound IV-C with GS 13005 and with Diazinon was determined by the topical application procedure of Example 5. The percent kills of IN/WHO strain flies after 24 hours are shown in Tables XXXVI and XXXVII; the percent kills of Rutgers A strain flies are shown in Tables XXXVIII and XXXIX.

Data set [8] deals with German male cockroaches (Blatella Germanicus). The data set is described as follows: topical application to thorax, 24 hour mortality of German male cockroaches. The class given is in vivo, German cockroach (Blatella Germanicus). The settings on record: GS 13005 alone, dose 0.08; 1440 min. On the procedure: The synergistic effect with mobam of synergist compounds I-B, II-H, II-K and IV-C is further illustrated by the 24 hour mortality data of German male cockroaches (Blatella Germanicus) shown in Table XXXX. The synergists and insecticide were diluted in acetone and applied in small droplets to the thorax of the insect. These doses of synergist alone gave zero percent insect mortality.
The synergistic effect with GS 13005 of compounds I-B, II-H, II-K, II-P, II-Q, II-R and IV-C is illustrated by the 24 hour mortality of German male cockroaches shown in Table XXXXI. These doses of synergist alone caused zero percent insect mortality.

Setting [9] is: GS 13005 1 + synergist 2 μg/fly.
The mark [10] stands for this setting: Pyrethrum 2 + synergist 4 μg/fly.

Values joined by “and” are separate entries in the source; they are usually repeats but may differ in a detail not shown here. Equal values may be shown once.

Consider `C#CCON=Cc1cccc2ccccc12` [I-I], for which the “percent kill after 24 hours” value is given as 47% in [1] (setting [9]) and 52% in data set [1] (setting [10]). Besides, the average percent knockdown was 4% with CH strain flies (5 min); 7% in the data set on CH strain flies (10 min); 19% with CH strain flies (15 min); 29% in the data set with CH strain flies (20 min); 40% with CH strain flies (25 min); 49% in the data set with CH strain flies (30 min). In addition, the values for the average percent knockdown in the data set on CH strain flies (40 min), in the data set with CH strain flies (50 min) and in the data set on CH strain flies (60 min) were 57%, 86% and 92%, respectively. The “Mean Sleeping Time” value in the data set with mice [2] (synergist 74 mg/K) is 31 min; with mice [2] (synergist 110 mg/K), 102 min; with mice [3] it was 62 min. Also, the entries for the “Relative Sleeping Time” value with mice [2] (synergist 74 mg/K), in the data set with mice [2] (synergist 110 mg/K) and in the data set on mice [3] (treated/control) were 1.1, 1.7 and 2.1, respectively. The “number of mice dead” value in the data set with mice [4] (Dimetilan 8 mg/kg + synergist 80 mg/kg ip) worked out at 0; in the data set on mice [4] (Dimetilan 8 mg/kg + synergist 240 mg/kg ip) it was 3. For the same molecule, in the data set on houseflies, the percent kill was found to be 55%.

In the case of `C#CCON=Cc1ccc(OC)c(OC)c1` [I-A], in [5] (in vivo), the “Contact Synergistic Ratio, Carbaryl (LC50 insecticide alone / LC50 with synergist)” value amounted to 200. Moreover, in data set [5] (pyrolan, synergist to insecticide 5:1 by weight, 24 h), the “Contact Synergistic Ratio, Pyrolan (LC50 insecticide alone / LC50 with synergist)” value was 30. The “percent kill after 24 hours” value in data set [1] (Dimetilan 2 + synergist 4 μg/fly) was 100%; in [1] (setting [9]), 45%; in data set [1] (GS 13798 1 + synergist 2 μg/fly) it was 65%; in data set [1] (setting [10]), 15%. For the same molecule, in the data set on houseflies, the percent kill was 45%.

Turning to `COc1nn(CSP(=S)(OC)OC)c(=O)s1` [GS 13005, S-((2-methoxy-5-oxo-Δ^2-1,3,4-thiadiazolin-4-yl)methyl) O,O-dimethyl phosphorodithioate, reference compound], the mortality – broadly, the percentage killed – at 1 µg/fly in data set [1] (Musca domestica, topical, 24 h, read-out: mortality, insecticide alone) lay within 10 to 40%. The “percent kill after 24 hours” value in data set [6] (GS 13005 alone 0.05 μg/fly) was 0%; in data set [6] (GS 13005 alone 0.10 μg/fly, 1440 min), 19% and 16% and 12%; in data set [7], 2%. The 24 hour mortality in [8] is 15% and 23% and 10%. Besides, in the data set with mice [4] (control: GS 13005 71 mg/kg in 0.1 ml corn oil), the “mice lethality (number dead)” value was determined as 5.

The values above are taken from patent US4020111A, “Propynyloxy alkyl arene insecticides” (priority 1975, dated 1977).
